{"source": "patent US20210113536A1", "about": "“METHODS AND COMPOSITIONS FOR DETECTING AND TREATING VENOUS THROMBOEMBOLISM” (United States Government As Represented By The Department …, priority 2019, published 2021)", "origin": "cited, not measured here", "test_system": "asymptomatic participants", "conditions": "20 mg of rosuvastatin, JUPITER trial"}
{"smiles": "CC(C)c1nc(N(C)S(C)(=O)=O)nc(-c2ccc(F)cc2)c1/C=C/[C@@H](O)C[C@@H](O)CC(=O)O", "note": "[rosuvastatin]", "values": [{"measurement": "occurrence of symptomatic VTE", "value": "reduced occurrence of symptomatic VTE"}]}
